Source: US20110021532A1, “NOVEL SUBSTITUTED HETEROAROMATIC COMPOUNDS AS INHIBITORS OF STEAROYL-COENZYME A DELTA-9 DESATURASE” (Merck Frosst Canada Ltd., priority 2008, published 2011)

These compounds were tested against T1, human SCD1 (hSCD-1) (Homo sapiens, UniProt O00767) (assay: SCD enzyme activity assay, reconstituted human SCD1 (hSCD-1)). Details: human SCD1, conversion of [3H]-stearoyl-CoA.
T1 construct: made in house; host or cells: baculovirus/Sf9
T1 sequence (O00767 1-359): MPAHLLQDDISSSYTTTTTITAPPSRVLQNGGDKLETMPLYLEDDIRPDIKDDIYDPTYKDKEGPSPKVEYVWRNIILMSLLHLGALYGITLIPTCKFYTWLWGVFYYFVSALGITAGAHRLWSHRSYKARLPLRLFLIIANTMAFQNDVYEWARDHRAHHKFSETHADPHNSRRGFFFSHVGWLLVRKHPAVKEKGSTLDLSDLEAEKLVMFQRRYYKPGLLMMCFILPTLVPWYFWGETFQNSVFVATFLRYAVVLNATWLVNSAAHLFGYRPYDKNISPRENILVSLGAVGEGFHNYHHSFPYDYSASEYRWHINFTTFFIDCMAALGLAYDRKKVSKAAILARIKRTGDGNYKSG
Format: biochemical
Experimental: The potency of compounds of formula I against the stearoyl-CoA desaturase was determined by measuring the conversion of radiolabeled stearoyl-CoA to oleoyl-CoA using rat liver microsome or human SCD1 (hSCD-1) following previously published procedures with some modifications (Joshi, et al., J. Lipid Res., 18: 32-36 (1977); Talmo, et al., Anal. Biochem, 29: 300-304 (1969)). Liver microsome was prepared from male Wistar or Sprague Dawley rats on a high carbohydrate diet for 3 days (LabDiet #5803, Purina). The livers were homogenized (1:10 w/v) in a buffer containing 250 mM sucrose, 1 mM EDTA, 5 mM DTT and 50 mM Tris-HCl (pH 7.5). After a 100,000×g centrifugation for 60 min, the liver microsome pellet was suspended in a buffer containing 100 mM sodium phosphate, 20% glycerol, 2 mM DTT, and stored at −78° C. Human SCD1 desaturase system was reconstituted using human SCD1 from a baculovirus/Sf9 expression system, cytochrome B5 and cytochrome B5 reductase. Typically, test compound in 2 μL DMSO was incubated for 15 min at room temperature with 180 μL of the SCD enzyme in a buffer containing 100 mM Tris-HCl (pH 7.5), ATP (5 mM), Coenzyme-A (0.1 mM), Triton X-100 (0.5 mM) and NADH (2 mM). The reaction was initiated by the addition of 20 μL of [^3H]-stearoyl-CoA (final concentration=2 μM, radioactivity concentration=1 μCi/mL). After 10 min, the reaction mixture (80 μL) was mixed with a calcium chloride/charcoal aqueous suspension (100 μL charcoal (10% w/v) plus 25 μL CaCl2 (2N). After centrifugation to precipitate the radioactive fatty acid species, tritiated water released from 9,10-[^3H]-stearoyl-CoA by the SCD enzyme was quantified on a scintillation counter.

First: CS(=O)(=O)c1ccc2nc(-c3ccc(-c4ccccc4F)nc3)[nH]c2c1
Second: CS(=O)(=O)c1cnc2[nH]c(-c3ccc(-c4ccccc4F)cc3)nc2c1
The IC50 of the first is 4.2-fold lower: 27 nM for the first, 113 nM for the second. The first is the more potent here.

First: CS(=O)(=O)c1ccc2[nH]c(-c3ccc(-c4cccs4)cc3)nc2c1
Second: CS(=O)(=O)c1ccc2nc(-c3ccc(-c4cccc(F)c4)cc3)[nH]c2c1
The IC50 of the first is 8.9-fold higher: 231 nM for the first, 26 nM for the second. The second is the more potent here.

CS(=O)(=O)c1ccn2cc(-c3ccc(-c4cccc(Cl)c4)cc3)nc2c1 showed an IC50 of 13 nM.
